Test results as given in PubChem BioAssay AID1918942 (Molecular Pharmacology Branch, DTP, NCI, 2023).

Test system: 743489-274-T-PDC complex spheroid viability
Experiment: Anticancer human tumor 743489-274-T-PDC patient-derived renal cell carcinoma cell line growth inhibition
Details: for IC50: curve of first compound; for viability, T/C: stronger effect = lower value
From the text: Multicellular complex tumor spheroid response to LSD1 Inhibitor Iadademstat in combination with a variety of drugs and investigational agents in selected tumor cell lines
The current study was undertaken to assess response to LSD1 inhibitors in combination with standard-of-care drugs and investigational agents in solid tumor complex spheroid models as well as in the K-562 leukemia. Complex spheroids include a stromal component modeled by human endothelial cells (HUVEC) and fibroblasts modeled by human mesenchymal stem cells (MSCs). The concentration ranges selected for each drug and investigational agent were based upon clinically achievable concentrations if the clinical Cmax of the agent was known.
Compounds. The drugs and investigational agents used in this study are listed on Table 1. All of the agents used, including staurosporine (NSC755774) and gemcitabine (NSC613327), were obtained from the Developmental Therapeutics Program, NCI. FDA-approved anticancer drugs are available from the NCI at http://dtp.nci.nih.gov/branches/dscb/oncology_drugset_explanation.html. Drugs and investigational agents were >95% pure by proton nuclear magnetic resonance (NMR) and liquid chromatography/mass spectrometry (LC/MS). Stock solutions were prepared at 400x in DMSO, stored at -70 degrees C, and diluted in fresh medium prior to their use. The final concentration of DMSO in cell culture wells never exceeded 0.25% (v/v). The FDA-approved anticancer drug set is available from the Developmental Therapeutics Program at https://dtp.cancer.gov/organization/dscb/obtaining/available_plates.htm. All drugs and investigational agents were tested over a range starting from a high concentration at or near the clinical Cmax and decreasing in half-log increments. If the clinical Cmax for an agent had not been determined, the highest concentration tested was 10 microM.
Cell Lines. The patient-derived cancer cell (PDC) lines: 292921-168-R-J2-PDC, K24384-001-R-PDC, and 521955-158-R2-J5-PDC pancreatic carcinomas, 556581-035-R-J1 ovarian carcinoma, 324938-238-R-J1-PDC, 855422-203-R-J1-PDC and 883617-216-R-J1-PDC urothelial bladder carcinomas, 743489-274-T-PDC renal cell carcinoma, 138582-R-J1 Merkel cell tumor, K60290-347-R-J1 and K57222-313-R-J1-PDC glioblastomas, 653999-131-R-J2-PDC, LG0703-F948-PDC, and 349418-098-R-PDC non-small cell lung carcinomas, 885512-296-R-J2-PDC, 171881-019-R-J1-PDC breast carcinomas and 186277-243-T-J2-PDC and 233499-124-R-J2-PDC colon carcinomas were obtained from the NCI Patient-Derived Models Repository (PDMR, https://pdmr.cancer.gov). The established cell lines NCI/ADR-RES (RRID:CVCL_14520 and OVCAR-5 (RRID:CVCL_1628) ovarian carcinomas, 786-O (RRID:CVCL_1051) and A498 (RRID:CVCL_A498) renal cell carcinoma, NCI-H211 (ATCC, cat. CRL-5824; RRID:CVCL_1529), NCI-H196 (ATCC, cat. CRL-5823, RRID:CVCL_1509), SW 1271 (ATCC, cat. CRL-2177, RRID:CVCL_1716) and NCI-H1876 (ATCC, cat. CRL-5902, RRID:CVCL_1503) small cell lung carcinomas, MDA-MB-231 (RRID:CVCL_0062) and MDA-MB-468 (RRID:CVCL_0419)breast carcinomas (10-12). Pooled donor human umbilical vein endothelial cells (HUVEC, Lonza, cat. CC-2519) and human mesenchymal stem cells (hMSC, Lonza, cat. PT-2501) were purchased from Lonza (Walkersville, MD).
Cell Culture. All cells were maintained in an incubator at 37 degrees C and 5% CO2 with 95% humidity. The PDC lines were cultured according to standard operating procedures established by the NCI PDMR (https://pdmr.cancer.gov). Briefly all PDCs were thawed and cultured in Matrigel-coated flasks prepared with a working solution of 1X Ham's F-12 nutrient mix, without supplementation (Invitrogen, Waltham, MA, cat. 11765054), 100 U/mL penicillin-streptomycin (Invitrogen, cat. 15140122), and 2.5% Matrigel (Corning Inc., Corning, NY, cat. 354248) for the first three passages. […]

[1] = second compound 0.1 µM, first compound 0.00316 µM
[2] = second compound 0.1 µM, first compound 0.01 µM
[3] = second compound 0.1 µM, first compound 0.0316 µM
[4] = second compound 0.1 µM, first compound 0.1 µM
[5] = second compound 0.316 µM, first compound 0.00316 µM
[6] = second compound 0.316 µM, first compound 0.01 µM
[7] = second compound 0.316 µM, first compound 0.0316 µM
[8] = second compound 0.316 µM, first compound 0.1 µM
[9] = second compound 1 µM, first compound 0.00316 µM
[10] = second compound 1 µM, first compound 0.01 µM
[11] = second compound 1 µM, first compound 0.0316 µM
[12] = second compound 1 µM, first compound 0.1 µM
[13] = second compound 3.16 µM, first compound 0.00316 µM
[14] = second compound 3.16 µM, first compound 0.01 µM
[15] = second compound 3.16 µM, first compound 0.0316 µM
[16] = second compound 3.16 µM, first compound 0.1 µM
[17] = second compound 10 µM, first compound 0.00316 µM
[18] = second compound 10 µM, first compound 0.01 µM
[19] = second compound 10 µM, first compound 0.0316 µM
[20] = second compound 10 µM, first compound 0.1 µM
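Also: spheroids exposed to compounds for 7 days before readout.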
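For viability, T/C in this document: 100% = DMSO vehicle control wells.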

CC[C@@]1(O)C(=O)OCc2c1cc1n(c2=O)Cc2cc3c(CN(C)C)c(O)ccc3nc2-1 + NC1CC1c1ccc(-c2cccc(O)c2)cc1
IC50 (second compound 0.1 µM): > 100 nM | IC50 (second compound 0.316 µM): > 100 nM | IC50 (second compound 1 µM): > 100 nM | IC50 (second compound 3.16 µM): 58.7 nM | IC50 (second compound 10 µM): > 100 nM | viability, T/C (second compound 0.1 µM, first compound 0.000316 µM): 98.9% | viability, T/C (second compound 0.1 µM, first compound 0.001 µM): 95.7% | viability, T/C [1]: 104% | viability, T/C [2]: 97.8% | viability, T/C [3]: 66.4% | viability, T/C [4]: 55.7% | viability, T/C (second compound 0.316 µM, first compound 0.000316 µM): 103% | viability, T/C (second compound 0.316 µM, first compound 0.001 µM): 99.6% | viability, T/C [5]: 89.7% | viability, T/C [6]: 74.3% | viability, T/C [7]: 67.9% | viability, T/C [8]: 53.9% | viability, T/C (second compound 1 µM, first compound 0.000316 µM): 97.7% | viability, T/C (second compound 1 µM, first compound 0.001 µM): 100% | viability, T/C [9]: 80% | viability, T/C [10]: 76.3% | viability, T/C [11]: 68.5% | viability, T/C [12]: 55.3% | viability, T/C (second compound 3.16 µM, first compound 0.000316 µM): 101% | viability, T/C (second compound 3.16 µM, first compound 0.001 µM): 86.7% | viability, T/C [13]: 78.3% | viability, T/C [14]: 69.9% | viability, T/C [15]: 53.8% | viability, T/C [16]: 45% | viability, T/C (second compound 10 µM, first compound 0.000316 µM): 120% | viability, T/C (second compound 10 µM, first compound 0.001 µM): 93% | viability, T/C [17]: 90.6% | viability, T/C [18]: 70.5% | viability, T/C [19]: 77.6% | viability, T/C [20]: 50.3%

COc1cc(C2c3cc4c(cc3C(OC3OC5COC(C)OC5C(O)C3O)C3COC(=O)C23)OCO4)cc(OC)c1O (stereo not given) + NC1CC1c1ccc(-c2cccc(O)c2)cc1
IC50 (second compound 0.1 µM): > 3000 nM | IC50 (second compound 0.316 µM): > 3000 nM | IC50 (second compound 1 µM): > 3000 nM | IC50 (second compound 3.16 µM): > 3000 nM | IC50 (second compound 10 µM): > 3000 nM | viability, T/C (second compound 0.1 µM, first compound 0.00949 µM): 107% | viability, T/C (second compound 0.1 µM, first compound 0.03 µM): 91.7% | viability, T/C (second compound 0.1 µM, first compound 0.0949 µM): 98% | viability, T/C (second compound 0.1 µM, first compound 0.3 µM): 88.7% | viability, T/C (second compound 0.1 µM, first compound 0.949 µM): 77.6% | viability, T/C (second compound 0.1 µM, first compound 3 µM): 76.9% | viability, T/C (second compound 0.316 µM, first compound 0.00949 µM): 103% | viability, T/C (second compound 0.316 µM, first compound 0.03 µM): 99.5% | viability, T/C (second compound 0.316 µM, first compound 0.0949 µM): 91.9% | viability, T/C (second compound 0.316 µM, first compound 0.3 µM): 76.7% | viability, T/C (second compound 0.316 µM, first compound 0.949 µM): 74.6% | viability, T/C (second compound 0.316 µM, first compound 3 µM): 79.7% | viability, T/C (second compound 1 µM, first compound 0.00949 µM): 92.8% | viability, T/C (second compound 1 µM, first compound 0.03 µM): 104% | viability, T/C (second compound 1 µM, first compound 0.0949 µM): 91.5% | viability, T/C (second compound 1 µM, first compound 0.3 µM): 92.2% | viability, T/C (second compound 1 µM, first compound 0.949 µM): 85.8% | viability, T/C (second compound 1 µM, first compound 3 µM): 76.5% | viability, T/C (second compound 3.16 µM, first compound 0.00949 µM): 87.9% | viability, T/C (second compound 3.16 µM, first compound 0.03 µM): 95.2% | viability, T/C (second compound 3.16 µM, first compound 0.0949 µM): 87.6% | viability, T/C (second compound 3.16 µM, first compound 0.3 µM): 87.5% | viability, T/C (second compound 3.16 µM, first compound 0.949 µM): 78.6% | viability, T/C (second compound 3.16 µM, first compound 3 µM): 79.3% | viability, T/C (second compound 10 µM, first compound 0.00949 µM): 97.2% | viability, T/C (second compound 10 µM, first compound 0.03 µM): 89.9% | viability, T/C (second compound 10 µM, first compound 0.0949 µM): 97% | viability, T/C (second compound 10 µM, first compound 0.3 µM): 83.9% | viability, T/C (second compound 10 µM, first compound 0.949 µM): 80.7% | viability, T/C (second compound 10 µM, first compound 3 µM): 70.4%

Nc1ncn(C2CC(O)C(CO)O2)c(=O)n1 (stereo not given) + NC1CC1c1ccc(-c2cccc(O)c2)cc1
IC50 (second compound 0.1 µM): > 1000 nM | IC50 (second compound 0.316 µM): > 1000 nM | IC50 (second compound 1 µM): > 1000 nM | IC50 (second compound 3.16 µM): > 1000 nM | IC50 (second compound 10 µM): > 1000 nM | viability, T/C [1]: 109% | viability, T/C [2]: 101% | viability, T/C [3]: 97.9% | viability, T/C [4]: 95.1% | viability, T/C (second compound 0.1 µM, first compound 0.316 µM): 91.2% | viability, T/C (second compound 0.1 µM, first compound 1 µM): 117% | viability, T/C [5]: 104% | viability, T/C [6]: 101% | viability, T/C [7]: 97.7% | viability, T/C [8]: 91.5% | viability, T/C (second compound 0.316 µM, first compound 0.316 µM): 102% | viability, T/C (second compound 0.316 µM, first compound 1 µM): 95.3% | viability, T/C [9]: 107% | viability, T/C [10]: 110% | viability, T/C [11]: 94.1% | viability, T/C [12]: 89.6% | viability, T/C (second compound 1 µM, first compound 0.316 µM): 90% | viability, T/C (second compound 1 µM, first compound 1 µM): 93% | viability, T/C [13]: 93.2% | viability, T/C [14]: 102% | viability, T/C [15]: 105% | viability, T/C [16]: 88.2% | viability, T/C (second compound 3.16 µM, first compound 0.316 µM): 82.5% | viability, T/C (second compound 3.16 µM, first compound 1 µM): 86.8% | viability, T/C [17]: 102% | viability, T/C [18]: 126% | viability, T/C [19]: 104% | viability, T/C [20]: 99.7% | viability, T/C (second compound 10 µM, first compound 0.316 µM): 83.2% | viability, T/C (second compound 10 µM, first compound 1 µM): 88.6%
